Reference: publication PMC8610152, “Residue substitution enhances the immunogenicity of neoepitopes from gastric cancers” (Cancer Biology & Medicine, 2021)
Entries after “also recorded” stand apart in the source; their conditions may differ.

Assays:
neoepitope-specific CTLs [1] = assay: TNF-α ELISA, CTLs co-cultured with target cells; format: cell-based, human; details: ELISA of supernatant; compared with CTLs stimulated by wild-type neoepitopes, P < 0.05
Experimental: (§1) To elicit neoepitope-specific CD8^+ T cell responses, peripheral blood mononuclear cells (PBMCs) were isolated from healthy HLA-A0201 volunteer donors using lymphocyte separation medium (MP Biomedicals, Burlingame, CA, USA). This protocol was approved by the Ethics Committee of Fujian Cancer Hospital (Approval No. SQ2017-032-01). PBMCs were seeded into a 6-well plate and incubated for 2 h. Adherent cells were then induced to differentiate into dendritic cells (DCs) with 581 medium (Corning, NY, USA) in the presence of 100 ng/mL recombinant human GM-CSF (Mitenyi Biotec, Bergisch Gladbach, Germany) and 50 ng/mL recombinant human IL-4 (Mitenyi Biotec). DCs were sensitized with 10 µg/mL neoepitope, with a preparation without peptide serving as the control. After 24 h, 10 ng/mL IL-6 (Miltenyi Biotec), 10 ng/mL IL-1β (Miltenyi Biotec), 1 µg/mL CD40L (Miltenyi Biotec), and 10 ng/mL TNF-α (Mitenyi Biotec) were added for DC maturation. Next, naïve T cells were co-cultured for 7 days with DCs at a responder: stimulator ratio of 10:1. Medium was then replaced by half-fresh medium containing IL-2 (200 IU/mL, Jiangsu Kingsley Pharmaceutical, Nanjing, China) every 3 days. After another stimulation with neoepitope-loaded DCs for 7 days, CD8 MicroBeads (Mitenyi Biotec) were used to isolate positive CD8^+ T cells for subsequent experiments.
(§2) The level of IFN-γ or TNF-α in the culture supernatants was detected using commercially available ELISA kits (Thermo Fisher Scientific, Waltham, MA, USA). Briefly, 96-well plates were coated with 100 µL/well capture antibody in coating buffer overnight. Plates were washed with wash buffer 3 times, 200 µL/well ELISA Diluent (1×) was added, and plates were incubated for 1 h. After washing with wash buffer twice, 100 µL/well of supernatants were added, incubated for 2 h, and washed with wash buffer 3 times, followed by addition of 100 µL/well antibodies against human IFN-γ/TNF-α. […] After incubation for 15 min, 100 µL/well stop solution was added to each well, and the optical density was measured using a microplate reader at 450 nm.

[2] = biological target: T1, pMHC complex (neoepitope/HLA-A0201) on T2 cells (Homo sapiens, UniProt P04439, D140Y/D185E/D98H/E176V/E277Q/G131W/G231S/I119V/I121R/I166T/I218V/L300P/L318F/N151K/N90K/P208A/P217A/Q86G/Q94H/R138H/R169H/T345S); assay: T2 stability assay of pMHC complex; format: binding; details: for Stability of pMHC complexes (dissociation rate over 0-24 h, Figure 2B): in words, mean ± SD of 3 independent experiments; for DC50 (time required for 50% dissociation of the pMHC complex stabilized at t = 0 h): T2 cells, 50 µg epitope + 3 µg β2M 18 h, 5 µg/mL brefeldin A 1 h, then 0, 6, 12, 18, 24 h at 37 °C, PE-HLA-A2 flow cytometry
T1 construct: endogenous in cells; host or cells: T2 cells
Experimental: T2 cells were cultured with 50 µg of each epitope peptide and 3 µg β2M for 18 h in 1 mL FBS-free RPMI1640 medium at 37 °C in a 24-well plate using 1 × 10^6 cells/well. T2 cells were then incubated with 5 µg/mL brefeldin A (Abcam, Cambridge, UK) at 37 °C for another 1 h after washing twice with PBS. […] The MFI of the HLA-A0201 molecules in T2 cells was detected by flow cytometry. The results are expressed as DC50, which is the time required for 50% dissociation of the pMHC complex stabilized at t = 0 h.

naïve CD8+ T cells = assay: CFSE proliferation of CD8+ T cells stimulated by neoepitope-loaded DCs; format: cell-based, human; details: DCs loaded with 10 µg/mL neoepitope, T cells:DCs 10:1, two rounds of 7 days, flow cytometry, mean ± SD
Experimental: as §1
The naïve CD8^+ T cells were adjusted to 1 × 10^7 cells/mL and subjected to carboxyfluorescein succinimidyl ester (CFSE; Invitrogen) staining. The CFSE concentration was 1 µg/mL. Naïve CD8^+ T cells were incubated at 37 °C in the dark for 5 min. CFSE-labeled naïve CD8^+ T cells were incubated in 5 times the volume of 581 medium containing 5% FBS (PAN-Seratech, Aidenbach, Germany) in the dark for 2.5 min, centrifuged at 1,500 rpm for 5 min, and resuspended in 581 medium. The naïve CD8^+ T cells were co-cultured with DCs with different neoepitopes at a ratio of 10:1 (naive CD8^+ T cells: 1 × 10^6 cells: DCs: 1 × 10^5 cells). After co-culturing with DCs with different neoepitopes for 2 consecutive times, 7 days for each time, T cells were stained with 20 µL PerCP-CD3 fluorescent antibody (BD Biosciences) and 5 µL APC-CD8 fluorescent antibody (BD Biosciences) in the dark for 30 min. The CFSE abundance on the surface of T cells was detected by flow cytometry to determine the proliferation of T cells.

T cells = assay: IFN-γ ELISA, T cells co-cultured with neoepitope-loaded DCs; format: cell-based, human; details: ELISA of co-culture supernatant; compared with wild-type neoepitope, P < 0.05
Experimental: as §1, §2

neoepitope-specific CTLs [3] = assay: Intracellular perforin staining of CTLs; format: cell-based, human; details: T cells:T2 cells loaded with wild-type neoepitopes 10:1, 24 h, brefeldin A 1 h, CD8+ gate, flow cytometry, mean ± SD of 3 independent experiments
Experimental: as §1
T cells and T2 cells loaded with wild-type neoepitopes were co-cultured at a ratio of 10:1 for 24 h, incubated in the presence of 5 µg/mL brefeldin A for 1 h, and washed with PBS once. The cells were stained with 20 µL PerCP-CD3 fluorescent antibody and 5 µL APC-CD8 fluorescent antibody in the dark for 30 min, followed by fixation with 100 µL Reagent A from a Intrasure Kit (BD Biosciences) in the dark for 5 min. Subsequently, the cells were permeabilized and stained with 50 µL Reagent B from the Intrasure Kit and 20 µL FITC-perforin fluorescent antibody (BD Biosciences) in the dark for 30 min. After washing with PBS once, the expression of perforin in T cells was detected by flow cytometry.

[4] = test system: T2 cells loaded with wild-type neoepitopes; assay: LDH release cytotoxicity assay of neoepitope-specific CTLs; format: cell-based, human; details: effector/target 20:1, 10:1, 5:1, 4 h, 37 °C, compared with wild-type neoepitope-specific CTLs
Experimental: as §1
The amount of lactate dehydrogenase (LDH) released from target cells incubated with neoepitope-specific T cells was measured using the CytoTox 96® Non-Radioactive Cytotoxicity Assay Kit (Promega, Madison, WI, USA). T2 cells loaded with neoepitopes were used as target cells at 1 × 10^4 cells/well in 96-well plates. […] After adding stop solution at 50 µL/well, the plates were analyzed using a microplate reader at a wavelength of 490 nm. The killing percentage of antigen-specific T cells to T2 cells loaded with neoepitopes was calculated according to the following formula: killing percentage = (experimental release – target spontaneous release – effector spontaneous release)/(target maximum release – target spontaneous release) × 100%.

neoepitope-specific CTLs [5] = assay: IFN-γ ELISA, CTLs co-cultured with target cells; format: cell-based, human; details: ELISA of supernatant; compared with CTLs stimulated by wild-type neoepitopes, P < 0.05
Experimental: as §1, §2

[6] = biological target: T2, HLA-A0201 molecules on the T2 cell surface (Homo sapiens, UniProt P04439, D140Y/D185E/D98H/E176V/E277Q/G131W/G231S/I119V/I121R/I166T/I218V/L300P/L318F/N151K/N90K/P208A/P217A/Q86G/Q94H/R138H/R169H/T345S); assay: T2 binding (affinity) assay; details: T2 cells 1 × 10^6 cells/well, 50 µg epitope + 3 µg β2M in 1 mL FBS-free RPMI1640, 37 °C, 18 h, PE-HLA-A2 antibody, flow cytometry, FI = (MFI epitope – MFI control)/MFI control, mean ± SD
T2 construct: The MFI (mean fluorescence intensity) of HLA-A0201 molecules on the T2 cell surface was detected by flow cytometry; endogenous in cells; host or cells: T2 cells
Experimental: The T2 cells were placed in a 24-well plate at a density of 1 × 10^6 cells/well; 50 µg epitope and 3 µg β2M (Merck, Kenilworth, NJ, USA) were then added and incubated in 1 mL fetal bovine free (FBS)-free RPMI1640 medium (Invitrogen, Carlsbad, CA, USA) at 37 °C for 18 h. T2 cells were washed twice with phosphate-buffered saline (PBS), treated with 20 µL PE-HLA-A2 fluorescent antibody (BD Biosciences, San Jose, CA, USA), incubated in the dark for 30 min, and then washed with PBS once. The MFI (mean fluorescence intensity) of HLA-A0201 molecules on the T2 cell surface was detected by flow cytometry (BD Biosciences). The formula used for calculating the fluorescence index was as follows: FI = (MFI of the epitope group – MFI of the control group)/MFI of the control group.

Row | Sequence | TNF-α released by CTLs co-cultured with target cells (neoepitope-specific CTLs [1]) | Stability of pMHC complexes (dissociation rate over 0-24 h, Figure 2B) [2] | Proliferation of specific CD8+ T cells (naïve CD8+ T cells) | IFN-γ secretion in T cells stimulated by DCs with neoepitopes (T cells) | Perforin expression in CTLs (neoepitope-specific CTLs [3]) | Cytotoxicity of neoepitope-specific CTLs on T2 cells loaded with wild-type neoepitopes [4] | IFN-γ released by CTLs co-cultured with target cells (neoepitope-specific CTLs [5]) | DC50 (time required for 50% dissociation of the pMHC complex stabilized at t = 0 h) [2] [h] | FI (fluorescence index) [6]
1 | YLLPVTCGV [mutSP140Y1] | released more IFN-γ and TNF-α | higher than those of wild-type neoepitopes; also recorded: more stable than mutSP140 | 23.43% ± 1.17% | more IFN-γ than the wild-type neoepitopes | 56.20% ± 1.28% | killed a greater number of T2 cells loaded with wild-type neoepitopes | released more IFN-γ and TNF-α | – | –
2 | SLIISVDGV [mutSTOML2] | released more IFN-γ and TNF-α | higher than those of wild-type neoepitopes | 17.70% ± 1.14% | more IFN-γ than the wild-type neoepitopes | 41.30% ± 1.76% | killed a greater number of T2 cells loaded with wild-type neoepitopes | released more IFN-γ and TNF-α | >18 | 4.71 ± 0.41
3 | FIGITATVV [mutABCA2] | – | – | 12.53% ± 1.79% | – | 29.87% ± 2.12% | – | – | <18 | 3.32 ± 0.36
4 | PLLPVTCGV [mutSP140] | – | – | 18.87% ± 0.81% | – | 44.70% ± 1.68% | – | – | >24 | 3.79 ± 0.50
5 | SVIISVDGV [mutSTOM] | – | – | 14.03% ± 0.76% | – | 35.53% ± 1.02% | – | – | <18 | 4.27 ± 0.52
6 | FLGITATVV [mutABCA2L2] | released more IFN-γ and TNF-α | higher than those of wild-type neoepitopes | 16.47% ± 1.59% | more IFN-γ than the wild-type neoepitopes | 36.57% ± 2.01% | killed a greater number of T2 cells loaded with wild-type neoepitopes | released more IFN-γ and TNF-α | >18 | 4.49 ± 0.42
